In US4294832A, “Tetrahydroisoquinoline compounds and a pharmaceutical composition thereof” (Tanabe Seiyaku Co., Ltd., priority 1979, dated 1981):
Counter-ions that a name gives are not always drawn.

Columns and labels:
[1] = test system: spontaneously hypertensive rats (SHR); assay: Hypotensive activity in SHR (systolic blood pressure, tail plethysmographic technique); format: in vivo, rat; conditions: 50 mg/kg orally
Experimental: Hypotensive activity in SHR:
A test compound (dose: 50 mg/kg) suspended in an aqueous carboxymethylcellulose solution was administered orally to spontaneously hypertensive rats (SHR) fasted overnight. The systolic blood pressure of the rats was measured by the tail plethysmographic technique (The Journal of Laboratory and Clinical Medicine 78(1971), page 957). The hypotensive activity of the test compound was estimated from the decreased level of blood pressure.

mice = assay: Oral toxicity in mice; format: in vivo, mouse; conditions: 2 g/kg orally
Experimental: Furthermore, when a test compound was administered orally to spontaneously hypertensive rats, 3(S)-2-[N-ethyl-N-(2-n-butoxycarbonylethyl)carbamoyl]-1,2,3,4-tetrahydroisoquinoline-3-carboxylic acid 1/2 calcium salt at a dose of 50 mg/kg decreased the blood pressure by 24 mm Hg. In addition, the toxicity of the compound (I) is considerably low. For example, when 3(S)-2-[N-ethyl-N-(2-n-butoxycarbonylethyl)carbamoyl]-1,2,3,4-tetrahydroisoquinoline-3-carboxylic acid 1/2 calcium salt was administered orally to mice at a dose of 2 g/kg, no mouse died within 7 days after said administration.

CCCCOC(=O)CCN(CC)C(=O)N1Cc2ccccc2C[C@H]1C(=O)O [3(S)-2-[N-ethyl-N-(2-n-butoxycarbonylethyl)carbamoyl]-1,2,3,4-tetrahydroisoquinoline-3-carboxylic acid 1/2 calcium salt]
Decrease in blood pressure (-Δ mm Hg) ([1]; SHR fasted overnight, systolic): 24 mm Hg
Duration of action ([1]; hypotensive action, SHR): > 6 h
mortality within 7 days after administration (mice): no mouse died
